Measured values: US20240190851A1, “FURAN FUSED RING-SUBSTITUTED GLUTARIMIDE COMPOUND” (MEDSHINE DISCOVERY INC., priority 2021, published 2024)
Structures can show the parent of a compound that is named as a salt.

Experiments:
[1] = test system: human prostate cancer LNCaP cells; experiment: Antiproliferative effect in LNCaP cells (CellTiter-Glo, 6 days); type: cell-based; conditions: 144 h
Method: In this experiment, the inhibitory effect of the test compound on cell proliferation in human prostate cancer LNCaP cells was detected.
The tumor cell lines were cultured in a 37° C., 5% CO2 incubator under the above culture conditions. Regular passage, and cells in logarithmic growth phase were taken for plating.
2. Cell Plating • (1) Cells were stained with trypan blue and viable cells were counted; • (2) the cell concentration was adjusted to an appropriate concentration;
• (3) 90 μL of cell suspension per well was added to the culture plate as shown in the table above, and cell-free culture medium was added to the blank control well; • (4) the culture plate was cultured overnight in a 37° C., 5% CO2 incubator with 100% relative humidity.
Preparation of stock solution storage plate with 400 times the initial concentration of the compound: The compound was serially diluted with DMSO from the highest concentration to the lowest concentration. The solution was prepared as needed each time.
Preparation of Working Solution with 10 Times the Initial Concentration of Compounds and Cell Treatment with Compounds • (1) To a V-bottom 96-well plate was added 78 μL of cell culture medium, and 2 μL of compound was pipetted from a stock solution storage plate with 400 times the initial concentration of the compound and added to the cell culture medium of the 96-well plate. To vehicle control and blank control was added 2 μL of DMSO. After the compound or DMSO was added, blowing with a pipette and mixing well were carried out. • (2) Administration: 10 μL of a working solution with 10 times the initial concentration of the compound was added to the cell culture plate. To vehicle control and blank control was added 10 μL of DMSO-cell culture medium mixture. • (3) The 96-well plate was returned to the incubator and cultured for 6 days.
The following steps were performed according to the instructions of Promega CellTiter-Glo luminescent cell viability assay kit (Promega-G7573). • (1) CellTiter-Glo buffer was melted and brought to room temperature; • (2) CellTiter-Glo substrate was brought to room temperature; • (3) CellTiter-Glo working solution was prepared by adding 100 mL of CellTiter-Glo buffer to a vial of CellTiter-Glo substrate to dissolve the substrate; • (4) the mixture was slowly vortexed and shaken to be fully dissolved; • (5) the cell culture plate was taken out and left for 30 minutes to equilibrate to room temperature; • (6) 50 μL of CellTiter-Glo working solution was added per well (equal to half the volume of cell culture medium per well). The cell plate was wrapped in aluminum foil to be protected from light; • (7) the culture plate was shaken on an orbital shaker for 2 minutes to induce cell lysis; (8) the culture plate was left at room temperature for 10 minutes to stabilize the luminescent signal; • (9) the luminescent signal was detected on a 2104 EnVision plate reader.
The inhibition rate (IR) of the test compound was calculated using the following formula: IR (%)=(RLU vehicle control−RLU compound)/(RLU vehicle control−RLU blank control)×100%. The inhibition rates of compounds at different concentrations were calculated in Excel, and then GraphPad Prism software was used to plot inhibition curves and calculate relevant parameters, including minimum inhibition rate, maximum inhibition rate, and ICSO.

[2] = test system: human prostate cancer LNCaP xenograft tumor; experiment: In vivo pharmacodynamic study, LNCaP subcutaneous xenograft tumor CB-17 SCID model; design: species or system CB-17 SCID mice; conditions: WX002 30 mg/kg (D0-D3), 50 mg/kg (D4-D21) p.o. BID
Method: Human prostate cancer LNCaP cells (ECACC-89110211) were cultured in vitro in a monolayer under the culture conditions of RPMI-1640 medium with 10% fetal bovine serum, […], and 100 μg/mL streptomycin, and cultured in a 37° C., 5% CO2 incubator.
Routine digestion with trypsin-EDTA was performed twice a week for passaging. When the cell saturation density was 80% to 90% and the number of cells reached the required level, the cells were collected, counted, and inoculated.
CB-17 SCID mice, 6 to 8 weeks old, male, weighing 18 to 22 g.
0.2 mL (1×10^7) of LNCaP cells (with matrix gel, volume ratio of 1:1) were subcutaneously inoculated on the right back of each mouse. The mice were subjected to surgical castration when the average tumor volume reached approximately 80 mm^3, and grouping and administration were initiated when the average tumor volume reached 166 mm^3.
Tumor diameters were measured twice a week with a vernier caliper. The formula for calculating tumor volume was: V=0.5a×b^2, wherein a and b represented the long and short diameters of the tumor, respectively.
The antitumor efficacy of compounds was evaluated by TGI (%). TGI (%) reflected the tumor growth inhibition rate. TGI (0%)=[(1−(average tumor volume at the end of administration in a treatment group−average tumor volume at the beginning of administration in this treatment group))/(average tumor volume at the end of treatment in the vehicle control group−average tumor volume at the beginning of treatment in the vehicle control group)]×100%.

Row | SMILES | IC50 [1] [nM] | Tumor volume (Day 0) ([2]; Day 0, start of administration) [mm^3] | TGI (Day 21) ([2]; Day 21) [%] | Tumor volume (Day 21) ([2]; Day 21) [mm^3]
1 | N#Cc1ccc(O[C@H]2CC[C@H](NC(=O)c3ccc(N4CCC(CN5CCN(c6cccc7c6ccc6occ(C8CCC(=O)NC8=O)c67)CC5)CC4)nn3)CC2)cc1Cl (some centres unmarked) [Hydrochloride of WX015] | 45 | – | – | –
2 | CC1(C)C(=O)N(c2ccc(C#N)c(C(F)(F)F)c2)C(=S)N1c1ccc(OCCN2CCN(CC(=O)Nc3ccc4c(C5CCC(=O)NC5=O)coc4c3)CC2)c(F)c1 (centres unmarked) [WX002] | 46 | 166 ± 18 | 89.1 | 219 ± 39
